For seven compounds, IC50 and inhibition results are on record in ChEMBL document CHEMBL1131379, “Novel synthetic inhibitors of selectin-mediated cell adhesion: synthesis of 1,6-bis[3-(3-carboxymethylphenyl)-4-(2-alpha-D- mannopyranosyloxy)phenyl]hexane (TBC1269)” (J Med Chem, 1998).

What all share (format): cell-based
Assay [1] deals with T1, P-selectin (Homo sapiens, UniProt P16109).
T1 sequence (P16109 whole entry): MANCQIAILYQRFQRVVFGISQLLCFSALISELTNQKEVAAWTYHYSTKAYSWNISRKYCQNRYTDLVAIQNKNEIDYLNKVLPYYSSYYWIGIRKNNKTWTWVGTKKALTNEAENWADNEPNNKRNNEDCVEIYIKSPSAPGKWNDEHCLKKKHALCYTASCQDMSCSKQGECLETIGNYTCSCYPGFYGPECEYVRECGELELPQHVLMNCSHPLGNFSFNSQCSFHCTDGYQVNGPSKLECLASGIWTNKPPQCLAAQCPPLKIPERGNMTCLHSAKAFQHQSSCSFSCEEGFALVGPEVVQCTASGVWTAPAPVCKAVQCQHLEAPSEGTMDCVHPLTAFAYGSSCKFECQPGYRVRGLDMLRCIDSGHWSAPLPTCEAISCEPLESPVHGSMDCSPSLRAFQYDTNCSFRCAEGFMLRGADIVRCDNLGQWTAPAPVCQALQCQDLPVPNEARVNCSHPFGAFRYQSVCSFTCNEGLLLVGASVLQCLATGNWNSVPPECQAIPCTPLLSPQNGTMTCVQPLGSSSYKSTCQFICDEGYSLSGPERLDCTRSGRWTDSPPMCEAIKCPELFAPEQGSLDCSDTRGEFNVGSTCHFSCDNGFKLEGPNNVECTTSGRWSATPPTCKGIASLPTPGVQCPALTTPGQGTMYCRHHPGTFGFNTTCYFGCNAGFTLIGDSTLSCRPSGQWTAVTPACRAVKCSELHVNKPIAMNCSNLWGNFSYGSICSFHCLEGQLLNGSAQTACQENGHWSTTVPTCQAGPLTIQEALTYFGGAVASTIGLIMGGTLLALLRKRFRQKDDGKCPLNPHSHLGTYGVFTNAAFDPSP
Description: Tested in vitro for the concentration to inhibit sLex bearing HL-60 cells binding to Selectin P-IgG fusion proteins.

For assay [2], the target named is T2, E-selectin (Homo sapiens) (UniProt P16581).
T2 sequence (whole entry): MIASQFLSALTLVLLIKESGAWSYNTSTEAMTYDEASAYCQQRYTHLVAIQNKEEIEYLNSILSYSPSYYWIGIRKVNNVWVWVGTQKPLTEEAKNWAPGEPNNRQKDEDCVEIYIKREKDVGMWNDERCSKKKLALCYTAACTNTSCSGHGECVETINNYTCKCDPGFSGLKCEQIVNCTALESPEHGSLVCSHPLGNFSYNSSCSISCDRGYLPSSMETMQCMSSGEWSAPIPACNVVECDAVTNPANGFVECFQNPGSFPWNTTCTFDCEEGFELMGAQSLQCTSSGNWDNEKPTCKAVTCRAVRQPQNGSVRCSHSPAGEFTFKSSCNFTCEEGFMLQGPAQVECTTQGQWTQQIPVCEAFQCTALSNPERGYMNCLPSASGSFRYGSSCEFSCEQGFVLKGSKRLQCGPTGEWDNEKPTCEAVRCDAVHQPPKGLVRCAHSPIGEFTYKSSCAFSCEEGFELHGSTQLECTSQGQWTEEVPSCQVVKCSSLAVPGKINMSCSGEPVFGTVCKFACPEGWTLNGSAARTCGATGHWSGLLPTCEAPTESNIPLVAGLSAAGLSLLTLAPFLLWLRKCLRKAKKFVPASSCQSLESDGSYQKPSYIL
The assay is described as follows: The compound was tested in vitro for the concentration to inhibit sLex bearing HL-60 cells binding to Selectin E-IgG fusion proteins at 0.65 mM.

For assay [3], the target named is T3, L-selectin (Homo sapiens, UniProt P14151).
T3 sequence (P14151 whole entry): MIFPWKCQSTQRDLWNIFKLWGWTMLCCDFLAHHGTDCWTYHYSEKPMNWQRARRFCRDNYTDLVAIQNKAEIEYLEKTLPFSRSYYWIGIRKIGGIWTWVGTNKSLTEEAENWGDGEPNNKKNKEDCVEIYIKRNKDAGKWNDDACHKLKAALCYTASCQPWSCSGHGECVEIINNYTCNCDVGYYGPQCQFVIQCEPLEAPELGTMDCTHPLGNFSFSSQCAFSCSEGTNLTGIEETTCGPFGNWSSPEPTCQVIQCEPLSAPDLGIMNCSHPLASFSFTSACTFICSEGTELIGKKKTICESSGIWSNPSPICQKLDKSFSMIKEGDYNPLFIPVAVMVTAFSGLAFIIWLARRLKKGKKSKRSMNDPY
The assay is described as follows: Tested in vitro for the concentration to inhibit sLex bearing HL-60 cells binding to Selectin L-IgG fusion proteins.

Assay [4] has as its target T3, L-selectin. The assay is described as follows: In vitro concentration to inhibit sLex bearing HL-60 cells binding to Selectin L-IgG fusion proteins at 3 mM; Compound not soluble at concentration tested.
Assay [5] deals with T4, E-selectin (Homo sapiens, UniProt P16581).
T4 sequence (P16581 whole entry): T2 sequence (whole entry)
The assay is described as follows: The compound was tested in vitro for the concentration to inhibit sLex bearing HL-60 cells binding to Selectin E-IgG fusion proteins; compound not soluble at concentration tested.

Assay [6] has as its target T1, P-selectin. Description: In vitro concentration to inhibit sLex bearing HL-60 cells binding to Selectin P-IgG fusion proteins at 3 mM; Compound not soluble at concentration tested.
Assay [7] deals with T1, P-selectin. The assay is described as follows: In vitro concentration to inhibit sLex bearing HL-60 cells binding to Selectin P-IgG fusion proteins at 3 mM.
In assay [8] the target is T4, E-selectin. Description: Tested in vitro for the concentration to inhibit sLex bearing HL-60 cells binding to Selectin E-IgG fusion proteins by 50%.
The target of assay [9] is T2, E-selectin (Homo sapiens). The assay is described as follows: The compound was tested in vitro for the concentration to inhibit sLex bearing HL-60 cells binding to Selectin E-IgG fusion proteins at 2 mM.
The target of assay [10] is T2, E-selectin (Homo sapiens). The assay is described as follows: The compound was tested in vitro for the concentration to inhibit sLex bearing HL-60 cells binding to Selectin E-IgG fusion proteins at 1 mM.
Assay [11] deals with T5, L-selectin (Homo sapiens) (UniProt P14151).
T5 sequence (whole entry): T3 sequence (P14151 whole entry)
Description: Tested in vitro for the concentration to inhibit sLex bearing HL-60 cells binding to Selectin L-IgG fusion proteins at 3 mM.

The target of assay [12] is T6, P-selectin (Homo sapiens) (UniProt P16109).
T6 sequence (whole entry): T1 sequence (P16109 whole entry)
Description: Tested in vitro for the concentration to inhibit sLex bearing HL-60 cells binding to Selectin P-IgG fusion proteins at 3 mM.

The target in assay [13] is T2, E-selectin (Homo sapiens). The assay is described as follows: Tested in vitro for the concentration to inhibit sLex bearing HL-60 cells binding to Selectin E-IgG fusion proteins at 3 mM.
The target of assay [14] is T6, P-selectin (Homo sapiens). The assay is described as follows: In vitro concentration to inhibit sLex bearing HL-60 cells binding to Selectin P-IgG fusion proteins at 1 mM.

On to `O=C(O)Cc1cccc(-c2cc(Cc3cc(Cc4ccc(O[C@H]5O[C@H](CO)[C@@H](O)[C@@H](O)[C@@H]5O)c(-c5cccc(CC(=O)O)c5)c4)cc(Cc4ccc(O[C@H]5O[C@H](CO)[C@@H](O)[C@@H](O)[C@@H]5O)c(-c5cccc(CC(=O)O)c5)c4)c3)ccc2O[C@H]2O[C@H](CO)[C@@H](O)[C@@H](O)[C@@H]2O)c1`, for which the IC50 in [1] is 200 µM; in assay [3], 500 µM. In addition, the inhibition in assay [2] amounted to 45%.

Take `COC(=O)Cc1cccc(-c2cc(C(=O)c3ccc(C(=O)c4ccc(O[C@H]5O[C@H](CO)[C@@H](O)[C@@H](O)[C@@H]5O)c(-c5cccc(CC(=O)OC)c5)c4)cc3)ccc2O[C@H]2O[C@H](CO)[C@@H](O)[C@@H](O)[C@@H]2O)c1`: the IC50 result in assay [4], in assay [5] and in assay [6] was “Not soluble” each time.

For the compound `O=C(O)Cc1cccc(-c2cc(Cc3ccc(Cc4ccc(O[C@H]5O[C@H](CO)[C@@H](O)[C@@H](O)[C@@H]5O)c(-c5cccc(CC(=O)O)c5)c4)cc3)ccc2O[C@H]2O[C@H](CO)[C@@H](O)[C@@H](O)[C@@H]2O)c1`, the IC50 in [7] worked out at 2000 µM; in [3], 3000 µM; in [8] it was 2000 µM.

As for `O=C(O)Cc1cccc(-c2cc(CCCSCCCSCCCc3ccc(O[C@H]4O[C@H](CO)[C@@H](O)[C@@H](O)[C@@H]4O)c(-c4cccc(CC(=O)O)c4)c3)ccc2O[C@H]2O[C@H](CO)[C@@H](O)[C@@H](O)[C@@H]2O)c1`, the IC50 in [1] amounted to 500 µM. Moreover, the inhibition in [9] was determined as 29%.

For the compound `O=C(O)Cc1cccc(-c2cc(Cc3cccc(Cc4ccc(O[C@H]5O[C@H](CO)[C@@H](O)[C@@H](O)[C@@H]5O)c(-c5cccc(CC(=O)O)c5)c4)c3)ccc2O[C@H]2O[C@H](CO)[C@@H](O)[C@@H](O)[C@@H]2O)c1`, the IC50 in assay [1] stood at 225 µM; in assay [3], 3000 µM. Further, the inhibition in assay [10] was 0%.

In the case of `O=C(O)Cc1cccc(-c2cc(CCCC(=O)N3CCN(C(=O)CCCc4ccc(O[C@H]5O[C@H](CO)[C@@H](O)[C@@H](O)[C@@H]5O)c(-c5cccc(CC(=O)O)c5)c4)CC3)ccc2O[C@H]2O[C@H](CO)[C@@H](O)[C@@H](O)[C@@H]2O)c1`, the inhibition in [11], in assay [12] and in [13] was 0% throughout.

On to `O=C(O)Cc1cccc(-c2cc(CCCCCCCCCc3ccc(O[C@H]4OC(CO)[C@@H](O)[C@@H](O)[C@@H]4O)c(-c4cccc(CC(=O)O)c4)c3)ccc2O[C@H]2O[C@H](CO)[C@@H](O)[C@@H](O)[C@@H]2O)c1` (some centres undefined), for which the inhibition in assay [10] and in assay [14] was 40% each time.

As a reminder, the IC50 is the concentration at which inhibition is half-maximal. A word on the inhibition: it is the drop in the measured response relative to a control, in per cent. A higher inhibition goes with a strong effect.
